# According to ChEMBL document CHEMBL5728780, “Cyclic substituted imidazo[4,5-c]quinoline derivatives” (2021):
# pIC50: −log10 of the molar value.
# Target: Leucine-rich repeat serine/threonine-protein kinase 2 (Homo sapiens, UniProt Q5S007)
# Experiment: LRRK2 Assay: LRRK2 kinase activity was measured using Lantha Screen technology from Invitrogen. GST-tagged truncated LRRK2 from Invitrogen (Cat #PV4874) was incubated with a fluorescein-labeled peptide substrate based upon ezrin/radixin/moesin (ERM), also known as LRRKtide (Invitrogen cat #PR8976A), in the presence of a dose response of compound. Upon completion, the assay was stopped and detected with a terbium labeled anti-phospho-ERM antibody (Invitrogen, cat #PR8975A). The assay was carried out under the following protocol: The compound dose response was prepared by diluting compound to a top concentration of 0.3 mM in 100% DMSO and serial diluted by half-log in DMSO to give an 11 point curve, 100× final assay concentration. Using Echo acoustic dispensing, 60 nL of compound was transferred to a low volume Corning 384-well assay plate. 3 μL of a working solution of substrate (200 nM LRRKtide, 2 mM ATP) prepared in assay buffer (50 mM HEPES, pH 7.5, 3 mM MgCl2, with 2 mM DTT and 0.01% Brij35 added fresh) was added to the 60 nL compound assay plate. The kinase reaction was started with 3 μL of a working solution of LRRK2 enzyme at a concentration of 4 μg/mL. The final reaction concentrations were 100 nM LRRKtide, 1 mM ATP, 2 μg/mL LRRK2 enzyme and a compound dose response with a top dose of 3 μM. […]
# Chain of Leucine-rich repeat serine/threonine-protein kinase 2 (Q5S007 whole entry, looked up, the tested form may be a part): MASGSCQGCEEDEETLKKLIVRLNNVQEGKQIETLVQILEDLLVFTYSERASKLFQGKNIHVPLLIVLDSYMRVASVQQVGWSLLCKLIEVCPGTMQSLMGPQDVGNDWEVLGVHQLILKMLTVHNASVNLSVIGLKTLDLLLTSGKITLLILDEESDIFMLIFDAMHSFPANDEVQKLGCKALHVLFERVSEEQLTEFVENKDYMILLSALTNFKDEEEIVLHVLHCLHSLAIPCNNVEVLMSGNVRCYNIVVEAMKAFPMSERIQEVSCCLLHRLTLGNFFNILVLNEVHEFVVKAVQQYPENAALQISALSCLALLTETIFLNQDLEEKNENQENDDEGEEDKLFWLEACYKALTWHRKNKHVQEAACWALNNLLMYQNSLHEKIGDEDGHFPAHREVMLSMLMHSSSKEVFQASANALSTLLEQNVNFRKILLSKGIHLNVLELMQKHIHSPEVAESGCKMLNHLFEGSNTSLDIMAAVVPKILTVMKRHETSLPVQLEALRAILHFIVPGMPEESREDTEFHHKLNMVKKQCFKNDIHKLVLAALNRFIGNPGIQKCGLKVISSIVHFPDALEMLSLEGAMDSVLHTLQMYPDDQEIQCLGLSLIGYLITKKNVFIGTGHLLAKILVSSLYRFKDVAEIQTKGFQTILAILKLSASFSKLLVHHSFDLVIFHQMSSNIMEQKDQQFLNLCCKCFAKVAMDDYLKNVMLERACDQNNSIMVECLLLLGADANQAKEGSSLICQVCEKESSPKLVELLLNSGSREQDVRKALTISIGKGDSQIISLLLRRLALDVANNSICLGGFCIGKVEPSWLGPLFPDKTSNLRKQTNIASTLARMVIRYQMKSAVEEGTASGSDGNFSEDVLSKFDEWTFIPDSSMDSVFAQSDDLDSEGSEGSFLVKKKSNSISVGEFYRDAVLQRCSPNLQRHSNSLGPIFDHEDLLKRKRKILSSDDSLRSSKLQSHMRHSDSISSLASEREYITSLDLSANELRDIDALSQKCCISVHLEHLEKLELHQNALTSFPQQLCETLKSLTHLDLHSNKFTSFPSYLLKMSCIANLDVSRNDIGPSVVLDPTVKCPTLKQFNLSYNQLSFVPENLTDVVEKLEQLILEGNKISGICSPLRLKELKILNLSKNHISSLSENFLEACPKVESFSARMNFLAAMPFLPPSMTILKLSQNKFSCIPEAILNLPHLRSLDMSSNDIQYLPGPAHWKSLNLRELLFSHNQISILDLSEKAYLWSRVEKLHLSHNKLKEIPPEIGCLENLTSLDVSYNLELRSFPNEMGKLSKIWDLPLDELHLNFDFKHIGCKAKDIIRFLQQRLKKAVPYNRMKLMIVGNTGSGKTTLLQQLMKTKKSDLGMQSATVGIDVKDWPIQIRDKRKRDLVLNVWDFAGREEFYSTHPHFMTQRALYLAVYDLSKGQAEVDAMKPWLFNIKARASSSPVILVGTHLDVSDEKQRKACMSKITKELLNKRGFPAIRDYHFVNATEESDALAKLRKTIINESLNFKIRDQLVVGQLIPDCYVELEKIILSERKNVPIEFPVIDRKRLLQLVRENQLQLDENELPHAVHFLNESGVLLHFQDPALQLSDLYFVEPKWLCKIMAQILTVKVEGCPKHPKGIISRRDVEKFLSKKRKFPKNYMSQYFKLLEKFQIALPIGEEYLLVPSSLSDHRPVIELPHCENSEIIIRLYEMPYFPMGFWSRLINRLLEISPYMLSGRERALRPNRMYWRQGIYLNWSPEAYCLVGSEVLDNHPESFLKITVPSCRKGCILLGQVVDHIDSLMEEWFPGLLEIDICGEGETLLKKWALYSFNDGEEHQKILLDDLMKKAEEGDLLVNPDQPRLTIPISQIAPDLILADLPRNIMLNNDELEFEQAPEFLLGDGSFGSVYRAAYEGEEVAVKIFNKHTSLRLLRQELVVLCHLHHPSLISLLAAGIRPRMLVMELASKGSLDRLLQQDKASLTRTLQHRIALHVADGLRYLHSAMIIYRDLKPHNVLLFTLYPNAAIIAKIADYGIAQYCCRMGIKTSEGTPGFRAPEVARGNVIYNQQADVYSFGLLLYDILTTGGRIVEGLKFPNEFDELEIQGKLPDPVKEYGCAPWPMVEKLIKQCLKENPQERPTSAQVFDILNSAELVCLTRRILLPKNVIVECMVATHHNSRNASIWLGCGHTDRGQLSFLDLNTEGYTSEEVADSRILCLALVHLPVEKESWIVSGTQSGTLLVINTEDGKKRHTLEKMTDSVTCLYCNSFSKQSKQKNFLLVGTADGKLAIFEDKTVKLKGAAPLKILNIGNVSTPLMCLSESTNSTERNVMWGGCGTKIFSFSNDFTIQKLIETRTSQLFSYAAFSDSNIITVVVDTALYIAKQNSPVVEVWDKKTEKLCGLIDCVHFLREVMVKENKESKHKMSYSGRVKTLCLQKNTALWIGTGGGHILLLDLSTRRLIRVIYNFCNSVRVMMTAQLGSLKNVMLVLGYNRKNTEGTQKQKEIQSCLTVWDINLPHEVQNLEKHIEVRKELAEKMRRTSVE
smiles,measurement,value
CN1CC[C@@H](n2c(C3CCC(F)C3)nc3cnc4ccc(F)cc4c32)C1 (stereo partly specified),pIC50,< 5.55
